Columns and labels:
[1] = In vivo pharmacokinetic study in mice; conditions: mouse, plasma; for bioavailability: 1 mg/kg Po (fasted) vs 1 mg/kg Iv; for AUC(0-t) / Cmax: 1 mg/kg
Text: […] After administration, plasma of mice was collected at specific time points, and the concentration of the compound in the plasma was detected by LC-MS/MS (AB SCIEX Qtrap4500). The PK parameters of the compounds were statistically analyzed and calculated (WinNonlin V5.2, Pharsight) to show the pharmacokinetic properties of the compounds disclosed herein in mice.

[2] = In vitro cytotoxicity assay in HepG2 cells using the CCK-8 method; format: cell-based; conditions: human
Procedure: In vitro cytotoxicity assay for the compounds disclosed herein was performed in HepG2 cells using the CCK-8 method. HepG2 cells (Beina Bio) in the logarithmic growth phase were collected, the concentration of cell suspension was adjusted, and then the cells were plated on a 96-well cell culture plate at 50,000 cells/well. The cells were then incubated overnight in a cell incubator (5%, 37° C.), and after 80-90% cell confluence was achieved, test compound at each concentration gradient or vehicle (DMSO) was added after medium change. The resulting mixture was incubated in the cell incubator (5%, 37° C.) for 48 h. After the treatment, the medium in the plate was discarded. The plate was washed twice with PBS, added with CCK-8 working solution (Beyotime) at 100 μL per well, and then incubated at 37° C. for 1.5 h in the dark. Absorbance at OD450 nm mil was measured for each well on a microplate reader, and CC50 value of each compound was analyzed and calculated.

ROCK2 kinase = biological target: T1, ROCK2 kinase (Homo sapiens, UniProt O75116); test: In vitro evaluation of ROCK2 kinase activity (HTRF KinEASE-STK time-resolved fluorometric assay); format: biochemical; conditions: ROCK2 kinase 0.4 ng/μL, ATP 6.739 μM
T1 construct: purchased Invitrogen PV3759
Procedure, shortened: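 Recombinant kinase (0.4 ng/μL final) preincubated 0.5 h at RT with compound (1% DMSO), then 2 h with 6.739 μM ATP and 1 μM biotinylated STK substrate 2 (final). HTRF readout via STK antibody-cryptate/streptavidin-XL665 after ~1 h; buffer 5 mM MgCl2, 1 mM DTT.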

[3] = In vitro metabolic stability, human liver microsome incubation; format: in vitro ADME; conditions: liver microsomes, 1 mg/mL protein, 37° C., read-out: T1/2 in human liver microsome
Procedure: (§1) The in vitro metabolic stability of the compounds disclosed herein was determined through incubation of liver microsomes of various species. A proper amount of test compound was added into a liver microsome reaction system (1 mg/mL liver microsome protein, 25 U/mL glucose-6 phosphate dehydrogenase, 1 mM NADP, 6 mM D-glucose 6-phosphate and 5 mM MgCl2), and then the mixture was incubated in a water bath kettle at 37° C. to start reaction. At each time point, 100 μL of the reaction liquid was added into a centrifuge tube containing 400 μL of internal standard working solution (containing a 200 ng/mL solution of dexamethasone, diclofenac, tolbutamide and labetalol in acetonitrile) precooled at 0° C. so as to stop the reaction, and the mixture was then centrifuged at 10,000 g for 10 min at 4° C. The supernatant was collected for LC-MS assay so as to obtain the values of in vitro metabolic half-life of the test compounds in liver microsomes of various species.

ROCK1 kinase = biological target: T2, ROCK1 kinase (Homo sapiens, UniProt Q13464); test: In vitro evaluation of ROCK1 kinase selectivity (HTRF KinEASE-STK time-resolved fluorometric assay); format: biochemical; conditions: ROCK1 kinase 0.4 ng/μL, ATP 3.53 μM
T2 construct: purchased Invitrogen
Procedure: ROCK1 activity was detected using a 96-well (Cisbio) time-resolved fluorometric assay. The assay for ROCK1 was performed in the following assay buffer: 5 mM MgCl2 (Sigma), 1 mM DTT (Sigma) and 1× kinase buffer. The kinase buffer was used for dilution. 7.5 μL of ROCK1 kinase (Invitrogen) was added to a 96-well microplate to reach a final concentration of 0.4 ng/μL, and then 0.25 μL of test compound (DMSO content: 1%) was added. The mixture was incubated at room temperature for 0.5 h. To start the reaction, the kinase buffer was also used to mix ATP (Aladdin) and the substrate STK-substrate 2-biotin. 7.5 μL of the mixed solution was added to the microplate to reach final concentrations of 3.53 μM and 1 μM. The resulting mixture was incubated at room temperature for 2 h. 5 mL of detection buffer was mixed with STK antibody-Cryptate, and then an appropriate volume of the mixture was mixed with an equal volume of streptavidin-XL665. 10 μL of the resulting mixture was added to stop the reaction. After further incubation for about 1 h, the microplate was read on a Molecular Devices SpectraMax i3x multifunctional microplate reader. The kinase buffer, the STK-substrate 2-biotin, the detection buffer, the STK antibody-Cryptate, and the streptavidin-XL665 were all from HTRF KinEASE-STK kit (Cisbio, 1000 tests, 61GSTXLA).

[4] = In vitro metabolic stability, rat liver microsome incubation; format: in vitro ADME; conditions: liver microsomes, 1 mg/mL protein, 37° C., read-out: T1/2 in rat liver microsome
Procedure: as §1

[5] = In vitro metabolic stability, guinea pig liver microsome incubation; format: in vitro ADME; conditions: liver microsomes, 1 mg/mL protein, 37° C., read-out: T1/2 in guinea pig liver microsome
Procedure: as §1

T1 sequence (O75116 whole entry): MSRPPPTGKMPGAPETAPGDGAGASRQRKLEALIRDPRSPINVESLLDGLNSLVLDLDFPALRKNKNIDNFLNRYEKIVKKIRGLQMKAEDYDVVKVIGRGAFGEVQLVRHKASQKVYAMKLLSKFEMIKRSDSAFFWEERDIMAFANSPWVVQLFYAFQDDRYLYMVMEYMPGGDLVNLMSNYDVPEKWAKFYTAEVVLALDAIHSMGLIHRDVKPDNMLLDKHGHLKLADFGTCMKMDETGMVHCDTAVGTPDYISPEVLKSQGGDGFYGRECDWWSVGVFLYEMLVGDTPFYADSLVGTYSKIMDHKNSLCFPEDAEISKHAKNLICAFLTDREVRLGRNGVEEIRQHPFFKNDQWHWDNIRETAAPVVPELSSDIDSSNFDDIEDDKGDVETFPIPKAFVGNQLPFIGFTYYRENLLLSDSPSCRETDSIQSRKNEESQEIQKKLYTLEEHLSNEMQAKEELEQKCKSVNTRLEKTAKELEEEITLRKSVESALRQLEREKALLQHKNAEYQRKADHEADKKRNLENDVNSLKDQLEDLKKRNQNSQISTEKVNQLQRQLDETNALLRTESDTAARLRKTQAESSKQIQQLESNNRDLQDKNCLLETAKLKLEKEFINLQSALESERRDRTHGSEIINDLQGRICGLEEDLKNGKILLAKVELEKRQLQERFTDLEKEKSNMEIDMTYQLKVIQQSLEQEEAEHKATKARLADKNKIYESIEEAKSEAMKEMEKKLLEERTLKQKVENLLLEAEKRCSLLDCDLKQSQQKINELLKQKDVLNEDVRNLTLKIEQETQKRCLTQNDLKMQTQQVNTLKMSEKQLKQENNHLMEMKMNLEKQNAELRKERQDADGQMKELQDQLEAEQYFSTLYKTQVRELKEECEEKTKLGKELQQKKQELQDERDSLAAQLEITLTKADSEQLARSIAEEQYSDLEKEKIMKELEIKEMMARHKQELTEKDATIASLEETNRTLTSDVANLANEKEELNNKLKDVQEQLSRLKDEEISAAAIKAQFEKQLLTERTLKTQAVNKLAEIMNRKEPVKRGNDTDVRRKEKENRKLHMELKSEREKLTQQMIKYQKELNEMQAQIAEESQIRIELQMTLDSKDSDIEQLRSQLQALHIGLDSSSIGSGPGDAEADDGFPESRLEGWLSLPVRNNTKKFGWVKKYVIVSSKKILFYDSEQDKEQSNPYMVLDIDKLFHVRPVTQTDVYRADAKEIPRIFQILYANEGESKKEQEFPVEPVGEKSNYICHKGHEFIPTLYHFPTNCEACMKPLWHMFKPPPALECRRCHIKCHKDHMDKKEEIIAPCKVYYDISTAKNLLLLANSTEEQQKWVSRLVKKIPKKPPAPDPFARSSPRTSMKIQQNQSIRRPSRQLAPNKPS
T2 sequence (Q13464 whole entry): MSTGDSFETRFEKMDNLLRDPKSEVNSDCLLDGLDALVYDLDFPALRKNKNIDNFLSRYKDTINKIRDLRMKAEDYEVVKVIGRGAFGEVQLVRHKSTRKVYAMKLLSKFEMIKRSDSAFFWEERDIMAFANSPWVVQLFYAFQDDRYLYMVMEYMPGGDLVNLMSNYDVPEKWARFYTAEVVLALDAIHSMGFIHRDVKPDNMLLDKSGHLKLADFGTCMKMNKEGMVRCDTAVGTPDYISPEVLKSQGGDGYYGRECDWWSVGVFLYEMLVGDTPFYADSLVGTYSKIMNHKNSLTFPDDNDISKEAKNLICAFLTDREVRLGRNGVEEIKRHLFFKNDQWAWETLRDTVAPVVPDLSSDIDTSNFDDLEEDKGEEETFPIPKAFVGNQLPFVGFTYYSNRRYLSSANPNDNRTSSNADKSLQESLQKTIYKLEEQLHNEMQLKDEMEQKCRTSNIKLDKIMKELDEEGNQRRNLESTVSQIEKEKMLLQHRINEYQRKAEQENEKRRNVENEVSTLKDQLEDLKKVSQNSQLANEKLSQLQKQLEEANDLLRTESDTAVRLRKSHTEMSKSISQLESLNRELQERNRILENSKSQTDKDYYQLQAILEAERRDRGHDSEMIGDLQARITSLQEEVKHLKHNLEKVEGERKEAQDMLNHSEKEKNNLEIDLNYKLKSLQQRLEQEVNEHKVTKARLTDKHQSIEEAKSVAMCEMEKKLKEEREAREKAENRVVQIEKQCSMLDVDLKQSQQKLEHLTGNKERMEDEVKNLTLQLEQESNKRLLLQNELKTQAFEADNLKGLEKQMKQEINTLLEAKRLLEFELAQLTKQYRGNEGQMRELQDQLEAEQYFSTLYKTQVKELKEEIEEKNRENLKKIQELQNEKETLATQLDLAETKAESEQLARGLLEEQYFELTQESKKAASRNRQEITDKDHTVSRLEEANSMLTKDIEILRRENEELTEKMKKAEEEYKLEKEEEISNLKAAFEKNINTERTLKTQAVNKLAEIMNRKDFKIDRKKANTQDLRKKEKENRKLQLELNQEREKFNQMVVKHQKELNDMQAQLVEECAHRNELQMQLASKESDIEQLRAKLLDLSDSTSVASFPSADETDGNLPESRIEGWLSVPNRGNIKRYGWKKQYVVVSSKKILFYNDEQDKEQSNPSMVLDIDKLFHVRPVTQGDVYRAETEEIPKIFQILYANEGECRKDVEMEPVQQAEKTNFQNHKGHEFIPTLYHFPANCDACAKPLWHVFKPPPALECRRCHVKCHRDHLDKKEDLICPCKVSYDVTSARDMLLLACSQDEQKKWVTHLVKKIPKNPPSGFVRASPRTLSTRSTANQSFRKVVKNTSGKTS

Row | Structure (SMILES) | bioavailability [1] | AUC(0-t) ([1]; Iv) | Cmax ([1]; Iv) | AUC(0-t) ([1]; Po (fasted)) | Cmax ([1]; Po (fasted)) | CC50 at 48 h [2] | IC50 (ROCK2 kinase) | half-life [3] | IC50 (ROCK1 kinase) | half-life [4] | half-life [5]
1 | Cn1c(C(=O)N2CC(F)(F)C2)cc2c1CN(c1nccc(Nc3ccc(-c4cn[nH]c4)cc3)n1)CC2 [Compound L005, (6-(4-((4-(1H-pyrazol-4-yl)phenyl)amino)pyrimidin-2-yl)-1-methyl-4,5,6,7-tetrahydro-1H-pyrrolo[2,3-c]pyridin-2-yl)(3,3-difluoroazetidin-1-yl)methanone] | 59.7% | 120 ng·h/mL | 155 ng/mL | 71.8 ng·h/mL | 37.2 ng/mL | > 100 µM | ≤ 0.05 µM | 2.92 h | > 4.5 µM | 1.72 h | 1.08 h
2 | Cn1c(C(=O)NCC(F)(F)F)cc2c1CN(c1nccc(Nc3ccc(-c4cn[nH]c4)cc3)n1)CC2 [Compound L017, 6-(4-((4-(1H-pyrazol-4-yl)phenyl)amino)pyrimidin-2-yl)-1-methyl-N-(2,2,2-trifluoroethyl)-4,5,6,7-tetrahydro-1H-pyrrolo[2,3-c]pyridine-2-carboxamide] | 12.2% | 872 ng·h/mL | 2570 ng/mL | 106 ng·h/mL | 41.3 ng/mL | 33.4 µM | ≤ 0.05 µM | 3.11 h | > 4.5 µM | 1.21 h | 0.751 h
3 | Cn1c(C(=O)N2CC(F)(F)C2)cc2c1CN(c1ncc(F)c(Nc3ccc(-c4cn[nH]c4)cc3)n1)CC2 [Compound L027, (6-(4-((4-(1H-pyrazol-4-yl)phenyl)amino)-5-fluoropyrimidin-2-yl)-1-methyl-4,5,6,7-tetrahydro-1H-pyrrolo[2,3-c]pyridin-2-yl)(3,3-difluoroazetidin-1-yl)methanone] | 82.7% | 412 ng·h/mL | 517 ng/mL | 341 ng·h/mL | 116 ng/mL | > 100 µM | ≤ 0.05 µM | 0.956 h | > 4.5 µM | 2.11 h | 10.3 h
4 | Cn1c(C(=O)N2CC(F)(F)C2)cc2c1CN(c1nc(F)cc(Nc3ccc(-c4cn[nH]c4)cc3)n1)CC2 [Compound L030, (6-(4-((4-(1H-pyrazol-4-yl)phenyl)amino)-6-fluoropyrimidin-2-yl)-1-methyl-4,5,6,7-tetrahydro-1H-pyrrolo[2,3-c]pyridin-2-yl)(3,3-difluoroazetidin-1-yl)methanone] | 30.6% | 726 ng·h/mL | 1120 ng/mL | 225 ng·h/mL | 60 ng/mL | > 100 µM | 0.05 to 0.5 µM | 3.46 h | > 4.5 µM | 2.64 h | 0.969 h
5 | Cn1c(C(=O)N2CC(F)(F)C2)cc2c1CN(c1ncnc(Nc3ccc(-c4cn[nH]c4)cc3)n1)CC2 [Compound L036, (6-(4-((4-(1H-pyrazol-4-yl)phenyl)amino)-1,3,5-triazin-2-yl)-1-methyl-4,5,6,7-tetrahydro-1H-pyrrolo(2,3-c)pyridin-2-yl)(3,3-difluoroazetidin-1-yl)methanone] | 59.9% | 349 ng·h/mL | 473 ng/mL | 209 ng·h/mL | 98.7 ng/mL | > 100 µM | 0.05 to 0.5 µM | 2.97 h | > 4.5 µM | 1.57 h | 1.25 h
6 | Cc1nc(Nc2ccc(-c3cn[nH]c3)cc2)nc(N2CCc3cc(C(=O)N4CC(F)(F)C4)n(C)c3C2)n1 [Compound L044] | 54.8% | 787 ng·h/mL | 594 ng/mL | 431 ng·h/mL | 109 ng/mL | 58.1 µM | 0.05 to 0.5 µM | 7.32 h |  | 3.49 h | 2.83 h
7 | Cn1c(C(=O)N2CC(F)(F)C2)cc2c1CN(c1nc(CC#N)nc(Nc3ccc(-c4cn[nH]c4)cc3)n1)CC2 [Compound L051, 2-(4-((4-(1H-pyrazol-4-yl)phenyl)amino)-6-(2-(3,3-difluoroazetidin-1-carbonyl)-1-methyl-1,4,5,7-tetrahydro-6H-pyrrolo[2,3-c]pyridin-6-yl)-1,3,5-triazin-2-yl)acetonitrile] |  |  |  |  |  | > 100 µM | 0.05 to 0.5 µM | 4.82 h | > 4.5 µM | 1.08 h | 0.84 h
8 | Cn1c(C(=O)N2CC(C#N)C2)cc2c1CN(c1ncc(F)c(Nc3ccc(-c4cn[nH]c4)cc3)n1)CC2 [Compound L056, 1-(6-(4-((4-(1H-pyrazol-4-yl)phenyl)amino)-5-fluoropyrimidin-2-yl)-1-methyl-4,5,6,7-tetrahydro-1H-pyrrolo[2,3-c]pyridin-2-carbonyl)azetidine-3-carbonitrile] |  |  |  |  |  | > 100 µM | ≤ 0.05 µM | 1.01 h | > 4.5 µM | 0.879 h | 0.701 h
9 | Cn1c(C(=O)N2CC(F)(F)C2)cc2c1CN(c1nc(Nc3ccc(-c4cn[nH]c4)cc3)c3cccn3n1)CC2 [Compound L057, (6-(4-((4-(1H-pyrazol-4-yl)phenyl)amino)pyrrolo[2,1-f][1,2,4]triazin-2-yl)-1-methyl-4,5,6,7-tetrahydro-1H-pyrrolo[2,3-c]pyridin-2-yl)(3,3-difluoroazetidin-1-yl)methanone] |  |  |  |  |  | > 100 µM | 0.05 to 0.5 µM | 3.17 h | > 4.5 µM | 0.759 h | 2.18 h
10 | Cn1c(C(=O)N2CC(C(F)F)C2)cc2c1CN(c1nccc(Nc3ccc(-c4cn[nH]c4)cc3)n1)CC2 [Compound L060, (6-(4-((4-(1H-pyrazol-4-yl)phenyl)amino)pyrimidin-2-yl)-1-methyl-4,5,6,7-tetrahydro-1H-pyrrolo[2,3-c]pyridin-2-yl)(3-(difluoromethyl)azetidin-1-yl)methanone] | 54% | 266 ng·h/mL | 463 ng/mL | 144 ng·h/mL | 64.5 ng/mL | > 100 µM | ≤ 0.05 µM | 1.59 h | > 4.5 µM | 1.16 h | 0.969 h

From patent US20230257376A1, “ROCK INHIBITOR, AND PREPARATION METHOD THEREFOR AND USE THEREOF” (WUHAN LL SCIENCE AND TECHNOLOGY DEVELOPMENT CO., LTD., priority 2020, published 2023)
